≈ marks a conversion by molar mass, not a printed value.
Experiments:
Type in all cases: cell-based
[1] = test system: process that transports GPI-anchored proteins to the cell wall; experiment: S. cerevisiae reporter system (cephalosporinase-CWP2 fusion, CW63 strain); details: S. cerevisiae reporter system of Example A2, cell wall fraction
Protocol: Since sensitivity of the enzyme reaction is better with cephalosporinase compared to lysozyme, S. cerevisiae introduced with pRCW63T (S. cerevisiae CW63 strain) was used for the screening of compounds.
(§1) After stationary cultivation in YPD liquid medium at 30° C. for 48 hours, the yeast cell culture was diluted 100 times with YPD liquid medium (3-5×10^5 cells/ml) and 75 μl/well aliquots thereof were inoculated into a V-bottomed 96-well plate containing 25 μl/well of a diluted test sample, and this was subjected to stationary cultivation at 30° C. for 48 hours. After centrifuging the plate, 25 μl of the supernatant was sampled and placed in a flat-bottomed 96-well plate, and this was used as the culture supernatant fraction.
The precipitated cells were suspended, and 75 μl/well aliquots of Zymolyase (Seikagaku Corporation) solution prepared with 2.4 M sorbitol were added and were allowed to react at 30° C. for 1 hour. After centrifuging the plate, 10 μl of the supernatant was sampled and placed in a flat-bottomed 96-well plate, 15 μl of phosphate buffer was added, and this was used as the cell wall fraction.
The cephalosporinase activities in the medium and in the cell wall fraction were measured by adding 200 μM of nitrocefin solution to a pooled sample, and after a certain period of time, stopping the reaction with citric acid buffer, and then measuring the absorbance at 490 nm.
Compounds were evaluated using the S. cerevisiae reporter system of Example A2. The lowest concentration at which cephalosporinase activity in the cell wall fraction became 50% or less compared to that obtained where the compound was not treated, was defined to be the IC50 value.

[2] = test system: S. cerevisiae CW63 strain; experiment: Fungal growth of S. cerevisiae CW63 strain by visual observation; details: FIG. 2
Protocol: as §1
Furthermore, fungal growth in the presence of the test sample was determined by visual observation.

[3] = test system: mutant GWT1 gene (R1 or R5); experiment: Growth of GWT1-disrupted S. cerevisiae clone harbouring mutant GWT1 gene (R1 or R5) plasmid; details: chromosomal GWT1 disrupted, pRS316GWT1-R1 or pRS316GWT1-R5, medium containing the compound
Protocol: S. cerevisiae LW63 strain having a lysozyme gene as the reporter gene due to introduction of pRLW63T was treated with ethyl methanesulfonate, then by culturing in a SD medium containing the aforementioned compound of the formula (Ia) at concentrations of 1.56, 3.13, and 6.25 μg/ml at 37° C. for 3 days, five resistant mutant strains (R1 to R5) were obtained. […] To confirm whether or not these two mutant strains have mutations on the GWT1 gene, genomic DNAs were extracted from both mutant strains, and the nucleotide sequence of the GWT1 gene portion was determined. As a result, in the R1 mutant strain, guanine at position 1213 had been mutated to adenine. Furthermore, in the R5 mutant strain, guanine at position 418 had been mutated to adenine. Therefore, it was elucidated that in the R1 mutant strain, the 405th amino acid, […], and in the R5 mutant strain, the 140th amino acid, glycine, had been changed to arginine.
Next, to confirm whether or not these mutations are the cause of the acquisition of the specific resistant characteristic to the aforementioned compound of the formula (Ia), the mutant GWT1 gene (R1 or R5) was isolated using the genomic DNAs derived from both mutant strains as templates and the primers of SEQ ID NOs: 60 and 61. […]

[4] = test system: process that transports GPI-anchored proteins to the cell wall; experiment: Reporter system in S. cerevisiae overexpressing the GWT1 gene product (CW63/GWT1 strain); details: 0.39 to 1.56 μg/ml, FIG. 6
Protocol: (§2) S. cerevisiae CW63 strain having a cephalosporinase gene as the reporter gene was cultured by the method according to Example A1, TRP1 of the integration vector was cleaved with EcoRV, and then transformation was carried out by the method of Example A1. GWT1-overexpressed strain (S. cerevisiae CW63/GWT1 strain) was obtained by culturing in SD(Trp^−) medium at 30° C. for 3 days.
(§3) Using S. cerevisiae CW63 strain and GWT1 gene introduced S. cerevisiae CW63/GWT1, activity of the aforementioned compound (Ia) was examined by a method according to the method described in Example A2.

[5] = test system: S. cerevisiae CW63/GWT1 strain; experiment: Growth of GWT1-overexpressed S. cerevisiae CW63/GWT1 strain; details: for sensitivity or resistance of the GWT1-overexpressed strain: GWT1-overexpressed strain compared with wild type strain
Protocol: as §2, §3

[6] = test system: GWT1-deficient strain; experiment: Growth of GWT1-deficient S. cerevisiae strain
Protocol: His5 cassette containing the GWT1 sequence on both ends was amplified by PCR using the his5 gene of S. pombe (Longtine M S et al, Yeast, 14: 953-961, 1998) as template and SEQ ID NO:25 and SEQ ID NO:26 as primers.
S. cerevisiae G2-10 was cultured and the cells were collected by the method according to Example A1, and the abovementioned PCR product was transformed by the method according to Example A1. A GWT1-deficient strain was obtained by cultivation in SD(His^−) medium at 30° C. for 5 to 7 days.

[7] = test system: C. albicans; experiment: Growth of C. albicans in the presence of the compound
[8] = test system: C. albicans cell wall; experiment: Transmission electron microscopy of the C. albicans cell wall; details: C. albicans cultured in the presence of the compound, compared to untreated cells
Protocol: C. albicans which was cultured in Sabouraud Dextrose Liquid Medium (5 ml) containing various concentrations of the test agent at 30° C. for 48 hours, then centrifuged, and collected, was immobilized by potassium permanganate immobilization method, and the transmission electron microscope image thereof was observed.
This flocculent fibrous structure was not influenced by other existing antifungal agents.

[9] = test system: adhesion of C. albicans to animal cells; experiment: Adhesion of C. albicans to animal cells (IEC-18); details: 1.56 μg/ml, immobilized IEC-18 cells, FIG. 3
Protocol: Three-milliliter aliquots of IEC-18 cells (1×10^5 cells/ml in D-MEM medium (Nissui Pharmaceutical) containing 10% fetal calf serum and 2 mM glutamine) were placed in each well of a 6-well multi-well plate. The plate was incubated in a carbon dioxide gas incubator at 37° C. for 3 days, the culture supernatant was removed, and ethanol immobilization was carried out.
C. albicans cultured in Sabouraud Dextrose Liquid Medium containing various concentrations of the test sample at 30° C. for 48 hours was adjusted to 4×10^2 cells/ml, and 1 ml was inoculated into each well of the plate in which the immobilized IEC-18 cells were cultured. After cultivation at 30° C. for 1 hour, the culture supernatant was removed, washed with PBS, and then 2 ml of Sabouraud Dextrose Agar Medium (Difco) was superposed. After cultivation at 30° C. overnight, the number of colonies (CFU) that had grown was counted and the adhesion rate was calculated.

SMILES | IC50 (lowest concentration at which cephalosporinase activity in the cell wall fraction became 50% or less compared to no compound) [1] [µg/mL] | sensitivity or resistance of the GWT1-overexpressed strain [5] | further results
CCCCc1ccc(Cc2nccc(OC)c2OC)cc1 [Example B242, 2-(4-Butylbenzyl)-3,4-dimethoxypyridine] | 0.78 (≈ 2.73 µM) |  | 
CC(=O)NCC#Cc1ccc(Cc2nccc3ccccc23)cc1 [Example B60, N-{3-[4-(1-Isoquinolylmethyl)phenyl]-2-propynyl}acetamide] | 6.25 (≈ 19.9 µM) |  | 
CCCCc1ccc(Cc2nccc3ccccc23)cc1 [compound (Ia), 1-(4-butylbenzyl)isoquinoline] |  | showing resistance | concentration at which growth inhibition was observed [2]: ≥ 3.13 µg/mL; resistance of clone expressing a single copy of mutant GWT1 gene (R1 or R5) [3]: resistance to the aforementioned compound of the formula (Ia) was seen; influence on cephalosporinase activity in culture supernatant and cell wall fractions [4]: no influence was observed; growth inhibition ([5]; CW63/GWT1 strain, >3.13 μg/ml, FIG. 6): growth inhibition was not observed; influence on growth of the GWT1-deficient strain [6]: growth is not influenced; growth inhibition of C. albicans ([7]; 1.56 μg/ml): growth inhibition cannot be observed; growth of C. albicans ([7]; no concentration stated): inhibits the growth; flocculent fibrous structure of the outermost layer of the cell having high electron density [8]: disappeared leaving a small amount of the layer with high electron density; adhesion of C. albicans to animal cells [9]: inhibited to about a half
CCCCc1ccc(Cc2nccc3sccc23)cc1 [Example B187, 4-(4-Butylbenzyl)thieno[3,2-c]pyridine] | 0.78 (≈ 2.77 µM) |  | 
C[C@@H]1[C@H](O)[C@@H](C)/C=C/C=C/C=C/C=C/C=C/C=C/C=C/[C@H](O[C@@H]2O[C@H](C)[C@@H](O)[C@H](N)[C@@H]2O)C[C@@H]2O[C@](O)(C[C@@H](O)C[C@@H](O)[C@H](O)CC[C@@H](O)C[C@@H](O)CC(=O)O[C@H]1C)C[C@H](O)[C@H]2C(=O)O [amphotericin B] |  | sensitive | 
CCCCc1ccc(Cc2ncccc2OC)cc1 [Example B231, 2-(4-Butylbenzyl)-3-methoxypyridine] | 0.78 (≈ 3.05 µM) |  | 
CCCCNC(=O)n1c(NC(=O)OC)nc2ccccc21 [benomyl] |  | sensitive | 
CCCCc1ccc(Cc2nccc3ccccc23)c(O)c1 [Example B85, 5-Butyl-2-(1-isoquinolylmethyl)phenol] | 0.20 (≈ 0.686 µM) |  | 
CC(=O)N(C)CCCc1ccc(Cc2nccc3ccccc23)cc1 [Example B73, N-{3-[4-(1-isoquinolylmethyl)phenyl]propyl}-N1-methylacetamide] | 50 (≈ 150 µM) |  | 
CCCCc1ccc(Cc2nccc3ccccc23)cc1 [Example B2, 1-(4-Butylbenzyl)isoquinoline] | 0.39 (≈ 1.42 µM) |  | 
CCCCc1ccc(Cc2nccc3ccsc23)cc1 [Example B195, 7-(4-Butylbenzyl)thieno[2,3-c]pyridine] | 0.39 (≈ 1.39 µM) |  | 
C[C@@H]1C[C@@H]([C@H](O)CC2CC(=O)NC(=O)C2)C(=O)[C@@H](C)C1 [cycloheximide] |  | sensitive | 

From patent publication US7897387B2, “Fungal cell wall synthesis gene” (Eisai R&D Management Co., Ltd., priority 2000, dated 2011)
